Experiments:
[1] = system: EpiAirway™ human-derived tracheal/bronchial epithelial cells; assay: Cytotoxicity (LDH assay); format: cell-based
[2] = Chemical stability of PN159 (stability indicating HPLC); format: physicochemical; settings: pH 9 and/or elevated temperature, 40 to 50° C.
Method: The chemical stability of the PN159 was determined under therapeutically relevant storage conditions. A stability indicating HPLC method was employed. Solutions (50 mM) were stored at various pH (4.0, 7.3, and 9.0) and temperature (5° C., 25° C., 35° C., 40° C., and 50° C.) conditions. Samples at pH 4 contained 10 mM citrate buffer. Samples at pH 7.3 and 9.0 contained 10 mM phosphate buffer. Representative storage stability data (including the Arrhenius plot) are depicted in FIG. 6. […] For example, at 5° C. and pH 4.0 or pH7.3, there was essentially 100% recovery of PN159 for six month storage. […] The pH range of 4.0 to 7.3 and the temperature range of refrigerated to ambient are most relevant for intranasal formulations.
The chemical stability of the PN159 was determined under therapeutically relevant storage conditions. A stability indicating HPLC method was employed. Solutions (50 mM) were stored at various pH (4.0, 7.3, and 9.0) and temperature (5° C., 25° C., 35° C., 40° C., and 50° C.) conditions. Samples at pH 4 contained 10 mM citrate buffer. Samples at pH 7.3 and 9.0 contained 10 mM phosphate buffer. […] For example, at 5° C. and pH 4.0 or pH 7.3, there was essentially 100% recovery of PN159 for six month storage. […]
The chemical stability of the PN159 was determined under therapeutically relevant storage conditions. […]

[3] = system: EpiAirway™ human-derived tracheal/bronchial epithelial cells; assay: Transepithelial electrical resistance (TER) across EpiAirway epithelial cell layer; format: cell-based

CC(C)C[C@H](NC(=O)[C@H](C)NC(=O)[C@H](CCCCN)NC(=O)[C@H](CC(C)C)NC(=O)[C@H](C)NC(=O)[C@H](CC(C)C)NC(=O)[C@H](CCCCN)NC(=O)[C@H](CC(C)C)NC(=O)[C@H](C)NC(=O)[C@H](CC(C)C)NC(=O)[C@@H](N)CCCCN)C(=O)N[C@@H](CCCCN)C(=O)N[C@@H](C)C(=O)N[C@@H](C)C(=O)N[C@@H](CC(C)C)C(=O)N[C@@H](CCCCN)C(=O)N[C@@H](CC(C)C)C(=O)N[C@@H](C)C(N)=O [PN159]
% Triton-X LDH Release ([1]; 25 μM, 1 h): 31% | cytotoxicity (LDH) ([1]; 25-100 μM PN159 with 2 mg/ml PTH): no significant cytotoxicity | LDH15 ([1]; 15 minute treatment at the peptide's optimal concentration): 0.007 | LDH60 ([1]; 60 minute treatment at the peptide's optimal concentration): 0.002 | chemical stability [2]: rapid deterioration | TER reduction ([3]; 1 μM peptide): 54% | TER reduction ([3]; 2.5 μM peptide): 79% | TER reduction ([3]; 10 μM peptide): 89% | TER reduction ([3]; 25 μM peptide): 94% | % T0 TER ([3]; 25 μM, 1 h, pH 7): 7% | TER in the presence of galantamine ([3]; 40 mg/ml galantamine lactate, 25, 50, 100 μM PN159, pH 5.0): reduced TER | TER reduction ([3]; PN159 25, 50, 100 μM with 2 mg/ml PTH, pH 4.5): more than 80% | Relative TER Decrease ([3]; relative to PN159 = 1.0): 1.0
